In this assay the test system is Aβ42. The assay can be described thus: Quantification of Aβ peptide in culture of neurons from rat fetus brain (Aβ ELISA). The class given is cell-based. To be noted: Primary cortical neuron, 72 h, IC50 for decrease in the Aβ42 concentration in the medium, three days after addition of the compound, read-out: Aβ42 production reducing effect. The procedure: Quantification of Aβ Peptide in Culture of Neurons from Rat Fetus Brain
(1) Rat Primary Neuronal Culture
Primary neuronal cultures were prepared from the cerebral cortex of embryonic day 18 Wistar rats (Charles River Japan, Yokohama, Japan). Specifically, the embryos were aseptically removed from pregnant rats under ether anesthesia. The brain was isolated from the embryo and immersed in an ice-cold L-15 medium (such as Invitrogen Corp. Cat #11415-064, Carlsbad, Calif., USA, or SIGMA L1518). The cerebral cortex was collected from the isolated brain under a stereoscopic microscope. The cerebral cortex fragments collected were enzymatically treated in an enzyme solution containing 0.25% trypsin (Invitrogen Corp. Cat #15050-065, Carlsbad, Calif., USA) and 0.01% DNase (Sigma D5025, St. Louis, Mo., USA) at 37° C. for 30 minutes to disperse the cells. Here, the enzymatic reaction was stopped by adding inactivated horse serum to the solution. The enzymatically treated solution was centrifuged at 1,500 rpm for five minutes to remove the supernatant. 5 to 10 ml of a medium was added to the resulting cell mass. Neurobasal medium (Invitrogen Corp. Cat #21103-049, Carlsbad, Calif., USA) supplemented with 2% B27 supplement (Invitrogen Corp. Cat #17504-044, Carlsbad, Calif., USA), 25 μM 2-mercaptoethanol (2-ME, WAKO Cat #139-06861, Osaka, Japan), 0.5 mM L-glutamine (Invitrogen Corp. Cat #25030-081, Carlsbad, Calif., USA), and Antibiotics-Antimycotics (Invitrogen Corp. Cat #15240-062, Carlsbad, Calif., USA) was used as the medium (Neurobasal/B27/2-ME). However, the above Neurobasal medium not supplemented with 2-ME (Neurobasal/B27) was used for the assay. The cells were redispersed by mild pipetting of the cell mass to which the medium was added. The cell dispersion was filtered through a 40-μm nylon mesh (Cell Strainer, Cat #35-2340, Becton Dickinson Labware, Franklin Lakes, N.J., USA) to remove the remaining cell mass, and thus a neuronal cell suspension was obtained. The neuronal cell suspension was diluted with the medium and then plated in a volume of 100 μl/well at an initial cell density of 5×10^5 cells/cm^2 in a 96-well polystyrene culture plate pre-coated with poly-L or D-lysine (Falcon Cat #35-3075, Becton Dickinson Labware, Franklin Lakes, N.J., USA coated with poly-L-lysine using the method shown below, or BIOCOAT™ cell environments Poly-D-lysine cell ware 96-well plate, Cat #35-6461, Becton Dickinson Labware, Franklin Lakes, N.J., USA). Poly-L-lysine coating was carried out as follows. 100 μg/ml of a poly-L-lysine (SIGMA P2636, St. Louis, Mo., USA) solution was aseptically prepared with a 0.15 M borate buffer (pH 8.5). […] of the solution was added to the 96-well polystyrene culture plate and incubated at room temperature for one or more hours or at 4° C. overnight or longer. Thereafter, the coated 96-well polystyrene culture plate was washed with sterile water four or more times, and then dried or rinsed with, for example, sterile PBS or medium, and used for cell plating. The plated cells were cultured in the incubator at 37° C. in 5% CO2-95% air for one day. Then, the total amount of the medium was replaced with a fresh Neurobasal/B27/2-ME medium, and then the cells were cultured for further three days.
The drug was added to the culture plate on Day 4 of culture as follows. The total amount of the medium was removed from the wells, and 180 μl/well of Neurobasal medium not containing 2-ME and containing 2% B-27 (Neurobasal/B27) was added thereto. […]
For orientation: In an ELISA, binding on a coated surface is turned into a signal by an enzyme label.
`NC1=NC2(CCOc3ccc(NC(=O)c4ncc(Br)cn4)cc32)CCS1` (centres unmarked) [Compound 15, N-(2′-amino-2,3,5′,6′-tetrahydrospiro[chromene-4,4′-[1,3]thiazin]-6-yl)-5-bromopyrimidine-2-carboxamide]: the IC50 turned out to be 63 nM.

With `NC1=NC2(CCOc3ccc(NC(=O)c4ccc(Br)cn4)cc32)CCS1` (centres unmarked) [Compound 16, N-(2′-amino-2,3,5′,6′-tetrahydrospiro[chromene-4,4′-[1,3]thiazin]-6-yl)-5-bromopyridine-2-carboxamide], the IC50 came out at 27 nM.

Regarding `NC1=NC2(CCOc3ccc(NC(=O)c4ncc(Cl)cc4Cl)cc32)CCS1` (centres unmarked) [Compound 18, N-(2′-amino-2,3,5′,6′-tetrahydrospiro[chromene-4,4′-[1,3]thiazin]-6-yl)-3,5-dichloropyridine-2-carboxamide], the IC50 amounted to 47 nM.

As to `N#Cc1ccc(C(=O)Nc2ccc3c(c2)C2(CCO3)CCSC(N)=N2)nc1` (stereo not drawn) [Compound 11, (−)—N-(2′-amino-2,3,5′,6′-tetrahydrospiro[chromene-4,4′-[1,3]thiazin]-6-yl)-5-cyanopyridine-2-carboxamide], the IC50 stood at 53 nM.

On to `NC1=NC2(CCOc3ccc(NC(=O)c4ccc(C(F)(F)F)cn4)cc32)CCS1` (centres unmarked) [Compound 12, N-(2′-amino-2,3,5′,6′-tetrahydrospiro[chromene-4,4′-[1,3]thiazin]-6-yl)-5-trifluoromethylpyridine-2-carboxamide], for which the IC50 worked out at 71 nM.

(Values after patent US8501733B2, “Spiroaminodihydrothiazine derivatives” (Eisai R&D Management Co., Ltd., priority 2008, dated 2013).)
